Reference: ChEMBL document CHEMBL1201862, “PubChem BioAssay data set” (2004)
The source made the active and inactive calls.

How the values were obtained:
[1] = molecular target: Peroxisome proliferator-activated receptor gamma/Nuclear receptor coactivator 1 (Homo sapiens, UniProt P37231); assay: TR-FRET dose response biochemical High Throughput Screening assay for agonists of the steroid receptor coactivator 1 (SRC-1) recruitment by the peroxisome proliferator-activated receptor gamma (PPAR gamma): non-selective agonists. [Related pubchem assays (depositor defined):AID1300, AID1808, AID504735, AID631]; format: protein assay
Sequence of Peroxisome proliferator-activated receptor gamma/Nuclear receptor coactivator 1 (P37231 whole entry): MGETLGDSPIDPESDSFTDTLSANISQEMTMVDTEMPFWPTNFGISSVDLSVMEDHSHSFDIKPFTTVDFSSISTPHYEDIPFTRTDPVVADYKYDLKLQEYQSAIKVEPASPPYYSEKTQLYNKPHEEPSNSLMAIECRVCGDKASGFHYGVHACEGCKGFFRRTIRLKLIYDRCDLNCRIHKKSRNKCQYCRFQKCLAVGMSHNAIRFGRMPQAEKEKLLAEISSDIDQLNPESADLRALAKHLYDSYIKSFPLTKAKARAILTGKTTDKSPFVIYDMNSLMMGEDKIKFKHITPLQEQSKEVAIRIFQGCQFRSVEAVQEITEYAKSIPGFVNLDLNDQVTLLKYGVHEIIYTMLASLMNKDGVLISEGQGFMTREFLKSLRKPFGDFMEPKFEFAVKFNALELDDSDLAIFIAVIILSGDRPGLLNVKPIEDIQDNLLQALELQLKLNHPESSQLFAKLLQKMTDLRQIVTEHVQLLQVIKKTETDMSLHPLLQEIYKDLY
Sequence of Peroxisome proliferator-activated receptor gamma/Nuclear receptor coactivator 1 (Q15788 whole entry, further chain): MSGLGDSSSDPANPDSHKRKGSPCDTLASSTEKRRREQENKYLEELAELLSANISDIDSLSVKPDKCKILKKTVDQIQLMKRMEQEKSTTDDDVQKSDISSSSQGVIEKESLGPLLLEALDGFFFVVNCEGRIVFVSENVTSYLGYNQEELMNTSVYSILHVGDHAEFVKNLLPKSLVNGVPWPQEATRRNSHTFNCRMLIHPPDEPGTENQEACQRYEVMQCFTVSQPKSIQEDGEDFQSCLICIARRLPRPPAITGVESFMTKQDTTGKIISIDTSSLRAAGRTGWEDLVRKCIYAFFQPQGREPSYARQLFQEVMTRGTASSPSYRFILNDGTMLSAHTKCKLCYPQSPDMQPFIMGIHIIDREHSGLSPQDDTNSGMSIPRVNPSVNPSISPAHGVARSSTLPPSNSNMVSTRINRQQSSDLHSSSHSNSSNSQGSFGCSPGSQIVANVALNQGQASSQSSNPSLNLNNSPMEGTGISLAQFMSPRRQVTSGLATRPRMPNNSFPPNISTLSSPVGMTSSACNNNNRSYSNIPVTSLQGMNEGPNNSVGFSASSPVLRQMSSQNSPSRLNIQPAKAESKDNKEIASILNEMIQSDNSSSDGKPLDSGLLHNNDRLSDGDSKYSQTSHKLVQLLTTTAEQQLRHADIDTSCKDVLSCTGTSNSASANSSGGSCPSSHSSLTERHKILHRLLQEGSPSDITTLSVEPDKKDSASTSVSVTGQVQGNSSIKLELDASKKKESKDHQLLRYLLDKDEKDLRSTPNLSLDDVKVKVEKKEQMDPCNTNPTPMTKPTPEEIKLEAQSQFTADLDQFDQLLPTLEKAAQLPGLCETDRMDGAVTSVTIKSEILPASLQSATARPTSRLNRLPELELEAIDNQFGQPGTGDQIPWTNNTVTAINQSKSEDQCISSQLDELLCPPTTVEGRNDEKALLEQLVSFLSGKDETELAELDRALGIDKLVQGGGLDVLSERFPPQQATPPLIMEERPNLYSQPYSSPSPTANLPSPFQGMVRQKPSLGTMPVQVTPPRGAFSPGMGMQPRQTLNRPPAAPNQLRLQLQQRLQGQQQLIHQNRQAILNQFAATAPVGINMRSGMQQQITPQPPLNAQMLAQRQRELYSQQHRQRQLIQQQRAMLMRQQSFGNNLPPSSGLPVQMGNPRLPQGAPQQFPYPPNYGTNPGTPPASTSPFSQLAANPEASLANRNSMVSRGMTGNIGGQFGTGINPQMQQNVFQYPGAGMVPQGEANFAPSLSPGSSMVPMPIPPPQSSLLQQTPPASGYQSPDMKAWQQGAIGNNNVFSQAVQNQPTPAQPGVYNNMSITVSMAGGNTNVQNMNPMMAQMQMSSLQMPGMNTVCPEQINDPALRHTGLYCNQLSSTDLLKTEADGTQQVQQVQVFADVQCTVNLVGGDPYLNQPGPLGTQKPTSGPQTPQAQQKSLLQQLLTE

[2] = molecular target: Peroxisome proliferator-activated receptor gamma/Nuclear receptor coactivator 2 (Homo sapiens, UniProt P37231); assay: (§1) TR-FRET dose response biochemical High Throughput Screening assay for agonists of the steroid receptor coactivator 2 (SRC-2) recruitment by the peroxisome proliferator-activated receptor gamma (PPAR gamma): non-selective agonists. [Related pubchem assays: 1297, 1032 ]; format: functional
[3] = molecular target: Peroxisome proliferator-activated receptor gamma/Nuclear receptor coactivator 3 (Homo sapiens, UniProt P37231); assay: as §1, with “3 (SRC-3)” for “2 (SRC-2)”, “1301 (Confirmation screen.), 1048 (Primary screen.)]” for “1297, 1032 ]”; format: functional
Sequence of Peroxisome proliferator-activated receptor gamma/Nuclear receptor coactivator 3 (P37231 whole entry): as the sequence (P37231 whole entry) above
Sequence of Peroxisome proliferator-activated receptor gamma/Nuclear receptor coactivator 3 (Q9Y6Q9 whole entry, further chain): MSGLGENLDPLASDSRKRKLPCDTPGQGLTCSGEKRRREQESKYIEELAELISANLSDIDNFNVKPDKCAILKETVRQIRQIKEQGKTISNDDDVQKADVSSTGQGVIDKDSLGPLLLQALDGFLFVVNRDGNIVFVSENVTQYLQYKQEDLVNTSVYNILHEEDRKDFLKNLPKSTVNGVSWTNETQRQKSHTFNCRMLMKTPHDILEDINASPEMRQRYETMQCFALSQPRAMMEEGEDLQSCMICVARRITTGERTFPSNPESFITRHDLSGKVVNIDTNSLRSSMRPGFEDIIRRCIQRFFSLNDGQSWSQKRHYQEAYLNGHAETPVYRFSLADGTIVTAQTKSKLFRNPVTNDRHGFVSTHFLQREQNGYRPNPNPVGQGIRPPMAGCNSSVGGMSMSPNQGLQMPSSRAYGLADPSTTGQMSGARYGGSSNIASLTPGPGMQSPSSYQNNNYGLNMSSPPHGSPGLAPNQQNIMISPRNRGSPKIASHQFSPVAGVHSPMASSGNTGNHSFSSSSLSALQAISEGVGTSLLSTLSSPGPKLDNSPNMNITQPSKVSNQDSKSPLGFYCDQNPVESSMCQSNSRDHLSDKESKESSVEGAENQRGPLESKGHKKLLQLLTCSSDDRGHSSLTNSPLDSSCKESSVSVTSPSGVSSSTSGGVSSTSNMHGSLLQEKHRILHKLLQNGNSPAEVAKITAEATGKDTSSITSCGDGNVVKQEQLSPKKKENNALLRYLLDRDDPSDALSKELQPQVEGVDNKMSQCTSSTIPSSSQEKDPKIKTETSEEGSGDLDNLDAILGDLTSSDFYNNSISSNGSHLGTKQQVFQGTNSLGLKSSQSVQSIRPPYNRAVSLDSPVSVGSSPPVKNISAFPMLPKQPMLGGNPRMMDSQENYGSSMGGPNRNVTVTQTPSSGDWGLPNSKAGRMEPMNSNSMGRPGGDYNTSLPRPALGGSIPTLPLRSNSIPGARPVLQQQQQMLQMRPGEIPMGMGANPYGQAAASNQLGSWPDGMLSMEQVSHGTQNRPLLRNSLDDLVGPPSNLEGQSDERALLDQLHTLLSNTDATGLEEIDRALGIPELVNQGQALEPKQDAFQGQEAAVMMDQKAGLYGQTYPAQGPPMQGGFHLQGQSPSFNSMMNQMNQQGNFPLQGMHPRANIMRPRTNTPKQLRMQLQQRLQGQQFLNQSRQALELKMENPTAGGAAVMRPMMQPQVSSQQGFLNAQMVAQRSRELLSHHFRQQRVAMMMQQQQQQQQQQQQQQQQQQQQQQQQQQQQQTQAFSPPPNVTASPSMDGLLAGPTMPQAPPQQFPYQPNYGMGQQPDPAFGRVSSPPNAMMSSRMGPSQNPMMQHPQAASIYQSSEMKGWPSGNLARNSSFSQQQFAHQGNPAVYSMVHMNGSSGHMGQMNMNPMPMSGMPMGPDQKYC

[4] = system: HEK293; assay: inhibitors of LMP1-driven NF-kB reporter, dose response, cell-based, HEK293, luciferase, cherry-pick (AID 588343); format: functional; details: Homo sapiens
[5] = molecular target: T1, Epstein-Barr nuclear antigen 1 (Epstein-Barr virus (strain B95-8) (HHV-4) (Human herpesvirus 4), UniProt P03211); assay: EBNA-1 inhibitors, dose response, biochemical, fluorescence polarization, 1536-well (AID 2381); design: species or system human gammaherpesvirus 4;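 further: fluorescence polarization of a Cy5 DNA probe bound by EBNA-1 protein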
T1 sequence (P03211 whole entry): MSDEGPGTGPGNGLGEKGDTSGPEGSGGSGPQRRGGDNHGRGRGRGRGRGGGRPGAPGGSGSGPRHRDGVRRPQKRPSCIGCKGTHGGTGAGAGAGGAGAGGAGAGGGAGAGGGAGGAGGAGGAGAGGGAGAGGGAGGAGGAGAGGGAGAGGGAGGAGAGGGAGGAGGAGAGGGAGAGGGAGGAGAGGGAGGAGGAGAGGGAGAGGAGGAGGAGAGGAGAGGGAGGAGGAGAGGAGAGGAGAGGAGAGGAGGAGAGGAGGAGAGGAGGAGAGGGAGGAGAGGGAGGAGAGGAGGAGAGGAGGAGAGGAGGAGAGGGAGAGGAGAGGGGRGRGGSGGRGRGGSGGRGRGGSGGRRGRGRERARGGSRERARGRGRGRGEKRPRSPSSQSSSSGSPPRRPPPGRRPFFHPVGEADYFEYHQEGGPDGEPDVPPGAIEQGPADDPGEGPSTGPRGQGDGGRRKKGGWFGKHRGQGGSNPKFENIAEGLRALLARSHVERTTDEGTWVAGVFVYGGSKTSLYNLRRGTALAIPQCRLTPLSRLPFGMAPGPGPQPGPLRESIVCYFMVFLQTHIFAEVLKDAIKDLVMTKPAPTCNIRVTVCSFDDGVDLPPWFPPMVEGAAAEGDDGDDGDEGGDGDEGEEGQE

[6] = molecular target: T2, Lytic switch protein BZLF1 (Epstein-Barr virus (strain B95-8) (HHV-4) (Human herpesvirus 4), UniProt P03206); assay: EBV ZTA inhibitors, dose response, counter-screen for EBNA-1 inhibitor project, biochemical, fluorescence polarization, Epstein-Barr virus, 1536-well (AID 2377); design: species or system human gammaherpesvirus 4;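 further: fluorescence polarization of Cy5-labelled ZRE DNA probe bound by purified Zta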
T2 sequence (P03206 whole entry): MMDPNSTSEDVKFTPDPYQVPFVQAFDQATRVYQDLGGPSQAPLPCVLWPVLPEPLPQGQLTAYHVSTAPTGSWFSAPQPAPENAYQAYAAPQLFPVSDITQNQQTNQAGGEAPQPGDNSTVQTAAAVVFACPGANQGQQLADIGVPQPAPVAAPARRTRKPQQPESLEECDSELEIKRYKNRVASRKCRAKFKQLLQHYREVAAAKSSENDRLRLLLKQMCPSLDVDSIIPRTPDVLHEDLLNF

[7] = molecular target: DNA dC->dU-editing enzyme APOBEC-3A (Homo sapiens, UniProt P31941); assay: Dose Response confirmation of small molecule APOBEC3A DNA Deaminase Inhibitors via a fluorescence-based single-stranded DNA deaminase assay. [Related pubchem assays (depositor defined):AID493011, AID493024]; format: functional
Sequence of DNA dC->dU-editing enzyme APOBEC-3A (P31941 whole entry): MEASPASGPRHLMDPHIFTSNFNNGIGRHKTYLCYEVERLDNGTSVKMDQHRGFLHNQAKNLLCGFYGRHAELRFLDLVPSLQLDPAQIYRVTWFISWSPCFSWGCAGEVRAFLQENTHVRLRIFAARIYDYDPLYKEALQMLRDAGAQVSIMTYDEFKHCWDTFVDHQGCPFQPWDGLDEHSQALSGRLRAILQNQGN

[8] = molecular target: DNA dC->dU-editing enzyme APOBEC-3G (Homo sapiens, UniProt Q9HC16); format: functional;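 further: Dose-response counterscreen measuring inhibition of APOBEC3G DNA deaminase activity, run while confirming APOBEC3A inhibitors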
[9] = molecular target: Cytochrome P450 2D6 (Homo sapiens, UniProt P10635);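 further: CYP2D6 member of a cytochrome P450 panel assay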
[10] = molecular target: Paired box protein Pax-8 (Homo sapiens, UniProt Q06710); assay: inhibitors of PAX8-driven TPO luciferase reporter, dose response, RMG-I cells, cherry-pick (AID 687027); format: functional, cell-based;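 further: luciferase reporter driven by Pax8 target thyroperoxidase promoter measured by SteadyGlo luminescence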
[11] = system: Vero; assay: cells; format: functional, cell-based; details: Chlorocebus sabaeus
[12] = cytotoxicity in HEK-293T cells, dose response, cytotoxicity control for TCR NF-kB inhibitor project, luminescence, T-cell screen hits (AID 489026); format: functional, cell-based;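 further: cells exposed to compound about 14 hours before the viability readout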
[13] = system: Vero; assay: cells; format: functional; details: Chlorocebus sabaeus
[14] = molecular target: T3, CAAX prenyl protease 2 (Saccharomyces cerevisiae S288c, UniProt Q03530); format: biochemical
T3 sequence (Q03530 whole entry): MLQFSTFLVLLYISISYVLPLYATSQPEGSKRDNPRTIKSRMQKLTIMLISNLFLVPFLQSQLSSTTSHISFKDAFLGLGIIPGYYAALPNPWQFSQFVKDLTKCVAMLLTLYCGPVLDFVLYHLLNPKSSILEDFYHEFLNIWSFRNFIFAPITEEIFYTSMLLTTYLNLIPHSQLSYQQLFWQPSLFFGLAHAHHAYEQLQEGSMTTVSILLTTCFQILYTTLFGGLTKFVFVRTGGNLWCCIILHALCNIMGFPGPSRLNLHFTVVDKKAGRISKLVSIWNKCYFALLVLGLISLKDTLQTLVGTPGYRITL

[15] = microbe, parasite or virus in culture; format: functional; details: Mycobacterium tuberculosis
[16] = molecular target: Beta-galactosidase (Escherichia coli, UniProt Q8VNN2); assay: PubChem AID 485352; format: functional
Sequence of Beta-galactosidase (Q8VNN2 whole entry): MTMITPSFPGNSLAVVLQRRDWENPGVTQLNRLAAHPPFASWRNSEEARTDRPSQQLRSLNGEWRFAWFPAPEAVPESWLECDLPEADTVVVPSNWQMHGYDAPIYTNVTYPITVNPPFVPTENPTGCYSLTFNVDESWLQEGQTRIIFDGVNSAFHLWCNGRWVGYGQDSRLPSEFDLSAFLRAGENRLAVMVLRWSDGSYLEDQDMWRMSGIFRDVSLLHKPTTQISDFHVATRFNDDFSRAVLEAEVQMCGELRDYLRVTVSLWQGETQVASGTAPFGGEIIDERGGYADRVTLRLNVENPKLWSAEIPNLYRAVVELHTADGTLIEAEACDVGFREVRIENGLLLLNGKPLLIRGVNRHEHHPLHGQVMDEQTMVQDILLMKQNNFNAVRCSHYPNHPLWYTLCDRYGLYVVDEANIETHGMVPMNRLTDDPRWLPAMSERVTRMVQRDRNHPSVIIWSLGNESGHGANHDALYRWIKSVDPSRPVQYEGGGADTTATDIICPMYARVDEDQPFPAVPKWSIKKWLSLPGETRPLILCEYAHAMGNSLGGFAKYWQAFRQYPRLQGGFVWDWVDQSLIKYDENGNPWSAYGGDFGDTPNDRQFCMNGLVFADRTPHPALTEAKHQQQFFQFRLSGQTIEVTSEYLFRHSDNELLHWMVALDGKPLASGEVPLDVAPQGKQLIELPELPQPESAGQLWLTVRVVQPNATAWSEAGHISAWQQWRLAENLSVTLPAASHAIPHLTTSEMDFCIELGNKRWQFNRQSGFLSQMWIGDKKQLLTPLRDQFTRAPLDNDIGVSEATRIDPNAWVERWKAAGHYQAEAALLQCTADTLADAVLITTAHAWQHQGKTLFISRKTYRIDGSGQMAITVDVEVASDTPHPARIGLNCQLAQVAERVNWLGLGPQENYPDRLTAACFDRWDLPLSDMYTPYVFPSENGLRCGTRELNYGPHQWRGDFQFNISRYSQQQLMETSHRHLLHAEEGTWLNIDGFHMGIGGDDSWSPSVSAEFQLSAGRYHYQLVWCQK

[17] = molecular target: T4, Type-1 angiotensin II receptor (Homo sapiens, UniProt P30556); assay: AT1 receptor antagonists, dose response, selectivity assay for APJ receptor antagonist project, cell-based, uHTS hits (AID 463214); format: functional;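 further: antagonist potency against angiotensin II stimulated AT1 response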
T4 sequence (P30556 whole entry): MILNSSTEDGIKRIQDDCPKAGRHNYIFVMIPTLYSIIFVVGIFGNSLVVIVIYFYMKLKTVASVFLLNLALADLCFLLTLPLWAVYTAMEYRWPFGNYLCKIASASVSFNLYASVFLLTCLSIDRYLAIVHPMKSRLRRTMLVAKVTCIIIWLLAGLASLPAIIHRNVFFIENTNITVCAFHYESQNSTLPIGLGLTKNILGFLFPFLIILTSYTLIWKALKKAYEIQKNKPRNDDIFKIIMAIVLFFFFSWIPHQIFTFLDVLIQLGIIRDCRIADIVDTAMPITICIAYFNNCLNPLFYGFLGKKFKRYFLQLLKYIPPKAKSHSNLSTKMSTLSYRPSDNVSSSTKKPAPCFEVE

[18] = cytotoxicity toward NIH3T3 fibroblasts, dose response, counter-screen, cell-based, ATP luminescence, mouse fibroblasts (AID 2010); format: functional;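 further: cells exposed to compound for about 90 hours before reading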
[19] = inhibitors of intracellular T. cruzi replication, confirmation, NIH3T3 host cells, beta-gal luminescence (AID 2044); format: functional, cell-based;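 further: intracellular parasites grown in NIH/3T3 mouse fibroblasts as host cells; luminescent beta-galactosidase reporter signal from transgenic T. cruzi replicating inside host cells; inhibitors lower the luminescence signal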
[20] = molecular target: T5, Heat shock factor protein 1 (Mus musculus, UniProt P38532); assay: HSF1 potentiators in luciferase reporter cells, confirmation, cell-based, NIH3T3, luminescence, dose retest (AID 435004); format: functional;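 further: stress induced by proteasome inhibitor MG132 added 30 min after compound; luciferase reporter driven by HSF1 response element in NIH3T3 cells; actives raise luminescence as potentiators of the MG132 stress response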
T5 sequence (P38532 whole entry): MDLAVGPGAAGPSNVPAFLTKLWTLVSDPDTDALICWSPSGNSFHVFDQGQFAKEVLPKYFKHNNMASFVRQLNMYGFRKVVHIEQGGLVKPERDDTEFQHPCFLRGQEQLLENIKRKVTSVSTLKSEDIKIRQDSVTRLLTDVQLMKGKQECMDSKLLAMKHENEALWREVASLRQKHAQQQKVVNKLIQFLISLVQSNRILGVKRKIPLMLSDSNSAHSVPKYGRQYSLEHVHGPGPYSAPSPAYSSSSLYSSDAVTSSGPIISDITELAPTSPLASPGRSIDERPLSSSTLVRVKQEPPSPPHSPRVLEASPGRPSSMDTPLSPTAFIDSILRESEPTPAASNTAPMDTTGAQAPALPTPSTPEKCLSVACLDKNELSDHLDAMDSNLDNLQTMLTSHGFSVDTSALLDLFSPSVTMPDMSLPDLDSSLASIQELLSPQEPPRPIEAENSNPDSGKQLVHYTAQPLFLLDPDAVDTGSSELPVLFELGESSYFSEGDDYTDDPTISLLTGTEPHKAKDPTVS

[21] = Luminescence Cell-Based Dose Retest to Confirm Inhibitors of Cancer Stem Cells. [Related pubchem assays (depositor defined):AID2717, AID2721]; format: functional; details: Homo sapiens
[22] = molecular target: Prothrombin (Homo sapiens, UniProt P00734); assay: Thrombin 1536 HTS Dose Response Confirmation. [Related pubchem assays: 1046 (Thrombin 1536 HTS; hits were confirmed in this assay)]; format: functional
[23] = system: BJ; assay: cytotoxicity toward BJ-TERT-LT-ST fibroblasts, dose response, cell-based, RAS-independent, luminescence (AID 1935); format: functional; details: Homo sapiens;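 further: BJ fibroblasts immortalized with TERT plus LT and ST oncogenes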
[24] = Luminescence Cell-Based Dose Confirmation HTS to Identify Inhibitors of Platelet Dense Granule Release. [Related pubchem assays: 1663 (Primary HTS), 1678 (Summary of Project)]; format: functional
[25] = system: BJ; assay: cells; format: functional, cell-based; details: Homo sapiens
[26] = molecular target: Luciferin 4-monooxygenase (Photinus pyralis, UniProt P08659); assay: firefly luciferase enzyme inhibitors, dose response, biochemical, luminescence (AID 1891)
[27] = cytotoxicity toward DRD oncogenic fibroblasts, dose response, cell-based, non-viral oncogenic, luminescence (AID 1934); format: functional; details: Homo sapiens
[28] = system: BJ; assay: cytotoxicity toward BJ-TERT fibroblasts, dose response, cell-based, RAS-independent, luminescence (AID 1933); format: functional; details: Homo sapiens

## O=C(Nc1nc(-c2ccc(S(=O)(=O)N3CCCCCC3)cc2)cs1)c1ccccc1
[1]
  EC50: 13.3 µM (inactive)
[2]
  EC50: 15.8 µM (not active)
[3]
  EC50: 40.9 µM (not active)

## CC(=O)c1c(C)[nH]c(C(=O)Nc2ccc(C)cn2)c1C
[4]
  AC50: 1.7 µM (active)

## COc1ccccc1Nc1ncc(C(=O)Nc2ccc(OC)c(OC)c2)c2ccccc12
[5]
  IC50: 16.5 µM (not active)
[6]
  IC50: > 111 µM (not active)

## CCCC(=O)Nc1ccc2nc(SCC(=O)Nc3ccc(N4CCOCC4)c(Cl)c3)sc2c1
[5]
  IC50: > 148 µM (not active)
[6]
  IC50: > 111 µM (not active)
[7]
  IC50: 4.33 µM (active)
[8]
  IC50: 4.72 µM (active)
[9]
  AC50: 10 µM (inconclusive)

## O[C@@H]1[C@@H](O)C=C2CCN3Cc4cc5c(cc4[C@H]1C23)OCO5 (some centres not stated)
[10]
  AC50: 1.88 µM (active)
[11]
  IC50: > 25 µM (active)
[12]
  IC50: > 80 µM (inactive)
[13]
  CC50: 5.86 µM (active)

## COc1ccc(CN2CCN(C(c3ccc(F)cc3)c3ccc(F)cc3)CC2)c(OC)c1OC
[14]
  AC50: 4.67 µM (active)
[15]
  CC50: > 40 µM (active)

## CNC(=S)NNC(=O)c1sccc1OCc1cccc(C(F)(F)F)c1
[5]
  IC50: 9.69 µM (active)
[6]
  IC50: > 111 µM (not active)

## CCOC(=O)c1oc2ccccc2c1NC(=O)c1ccc(S(=O)(=O)N(C)C)cc1
[5]
  IC50: 16.6 µM (not active)
[6]
  IC50: > 111 µM (not active)

## CCCCOC(=O)C(C)Nc1n[nH]c(=S)[nH]c1=O (configuration not stated)
[1]
  EC50: 17.3 µM (inactive)
[2]
  EC50: 16.3 µM (not active)
[3]
  EC50: > 79.4 µM (not active)

## O=C(CN1C(=O)c2ccccc2C1=O)NCC(=O)OCC(=O)c1cccc([N+](=O)[O-])c1
[16]
  EC50: > 40 µM (inactive)
[17]
  IC50: 17.4 µM (active)

## CN(C)CCCNC(=O)/C=C/c1ccc(OCc2c(F)cccc2Cl)cc1
[11]
  IC50: 23.5 µM (active)
[18]
  EC50: 8.47 µM (active)
[19]
  EC50: 0.327 µM (active)
[13]
  CC50: > 25 µM (active)

## Cc1ccc(-c2nc3ccccc3[nH]2)cc1NC(=O)c1sc2cc(Cl)ccc2c1Cl
[5]
  IC50: 13 µM (not active)
[6]
  IC50: > 111 µM (not active)
[18]
  EC50: > 60 µM (inconclusive)
[19]
  EC50: 0.642 µM (active)

## COc1ccc2nc(SC)c(C#N)cc2c1
[1]
  EC50: 14.1 µM (inactive)
[2]
  EC50: 12.3 µM (not active)
[3]
  EC50: 41.8 µM (not active)
[20]
  EC50: > 260 µM (inactive)

## COc1cc(/C=C/c2ccc3cccc(OC)c3n2)c(OC(C)=O)c([N+](=O)[O-])c1
[16]
  EC50: 26.9 µM (active)
[21]
  AC50: 7.38 µM (active)
[17]
  IC50: 10.2 µM (active)

## O=C(CSc1nnc(-c2ccccc2)c(-c2ccccc2)n1)Nc1ccc(Br)cn1
[22]
  IC50: > 50 µM (inconclusive)

## Cc1onc(-c2ccccc2Cl)c1C(=O)Nc1nnc(-c2ccc(Br)cc2)s1
[1]
  EC50: > 79.4 µM (inactive)
[2]
  EC50: 45 µM (not active)
[3]
  EC50: > 79.4 µM (not active)

## O=C(Nc1ccc(N2CCOCC2)cc1)C1CCN(S(=O)(=O)c2ccccc2F)CC1
[22]
  IC50: > 50 µM (not active)

## COc1cccc(/C=N/Nc2ncccc2[N+](=O)[O-])c1OC
[23]
  EC50: > 150 µM (not active)
[24]
  EC50: 3.32 µM (active)
[25]
  EC50: 15.6 µM (inconclusive)
[26]
  EC50: 5.27 µM (active)
[27]
  EC50: 13.5 µM (active)
[4]
  AC50: 1.8 µM (active)
[28]
  EC50: 17.6 µM (active)

## Cc1ccc(N2CC(C(=O)N/N=C/c3cccc([N+](=O)[O-])c3)CC2=O)cc1 (configuration not stated)
[22]
  IC50: > 50 µM (not active)

## CC(=O)/N=c1\sc2nc3ccccc3nc2n1N(C(C)=O)C(C)=O
[1]
  EC50: 25.2 µM (inactive)
[2]
  EC50: 22.9 µM (not active)
[3]
  EC50: > 79.4 µM (not active)
